In patent publication US20230212164A1, “ANNULATED 2-AMINO-3-CYANO THIOPHENES AND DERIVATIVES FOR THE TREATMENT OF CANCER” (BOEHRINGER INGELHEIM INTERNATIONAL GMBH, priority 2020, published 2023) one finds IC50 and GI50 data, which are given here for 16 compounds.

Sequence of KRASG12-dependent Ba/F3 cells (P01116 whole entry G12C, canonical isoform): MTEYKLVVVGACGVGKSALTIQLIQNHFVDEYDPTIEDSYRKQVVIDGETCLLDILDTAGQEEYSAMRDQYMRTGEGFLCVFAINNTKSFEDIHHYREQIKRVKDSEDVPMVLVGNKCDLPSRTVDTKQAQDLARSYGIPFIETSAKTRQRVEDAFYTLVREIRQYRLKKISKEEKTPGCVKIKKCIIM

For one experiment, the target named is T1, protein-protein interaction between SOS1 and KRAS G12C (Homo sapiens, UniProt P01116, C118S/C51S/C80L/G12C).
T1 construct: His6 (N)
T1 sequence (P01116 1-169 isoform P01116-2 G12C/C51S/C80L/C118S): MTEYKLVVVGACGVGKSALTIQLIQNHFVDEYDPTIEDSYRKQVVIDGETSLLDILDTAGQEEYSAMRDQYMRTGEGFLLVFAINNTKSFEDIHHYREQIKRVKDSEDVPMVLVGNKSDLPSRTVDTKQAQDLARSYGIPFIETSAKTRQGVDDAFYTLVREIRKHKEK
The experiment in a line: KRAS::SOS1 AlphaScreen binding assay. Conditions: Table 36. On the procedure:
KRAS::SOS1 AlphaScreen Binding Assay
Assay buffer: • 1×PBS • 0.1% BSA • 0.05% Tween 20
AlphaLISA Glutathione Acceptor Beads and AlphaScreen Streptavidin Donor Beads are mixed in assay buffer at a concentration of 10 μg/mL (final assay concentration) each prior to use and kept at room temperature.
Compounds are diluted to a final start concentration of 100 μM and are tested in duplicate. […] For compound a start concentration of 100 μM, 150 nL of compound solution is transferred per well in 11 concentrations in duplicate with serial 1:5 dilutions.
The assay is run using a fully automated robotic system in a darkened room below 100 Lux. 10 μL of KRAS::SOS1 GDP mix is added into columns 1-24 to the 150 nL of compound solution (final dilution in the assay 1:100, final DMSO concentration 1%).
After 30 minutes incubation time 5 μL of bead mix is added into columns 1-23. Plates are kept at room temperature in a darkened incubator. After further 60 minutes incubation, the signal is measured using a PerkinElmer Envision HTS Multilabel Reader using the AlphaScreen specifications from PerkinElmer. Each plate contains the following controls: • diluted DMSO+KRAS::SOS1 GDP mix+bead mix • diluted DMSO+KRAS::SOS1 GDP mix
IC50 values are calculated and analyzed using a 4 parametric logistic model.
Background: In Alpha technology, singlet oxygen from a donor bead excites a nearby acceptor bead.
`C=CC(=O)N1CCN(c2cc(-c3noc([C@@]4(C)CCc5sc(N)c(C#N)c54)n3)nc(N[C@@H](C)[C@@H]3CCCN3C)n2)CC1` [Ia-132] registered an IC50 of 515 nM.

For `C=CC(=O)N1CC[C@@H](Oc2cc(O[C@@H](C)[C@@H]3CCCN3C)nc(-c3noc([C@@]4(C)CCCc5sc(N)c(C#N)c54)n3)c2)C1` [Ia-81], the IC50 is 1.6 nM.

`C=CC(=O)N1CCN(c2cc(-c3noc([C@@]4(C)CCCc5sc(N)c(C#N)c54)n3)nc(OC3(CN4CCCC4)CC3)n2)CC1` [Ia-67] displayed an IC50 of 15 nM.

Compound `C=CC(=O)N1CCN(c2cc(-c3noc([C@@]4(C)CCCc5sc(N)c(C#N)c54)n3)nc(O[C@@H](CC)[C@@H]3CCCN3C)n2)CC1` [Ia-138] came in with an IC50 of 2 nM.

`C=CC(=O)N1CCN(c2cc(-c3noc([C@@]4(C)CCCc5sc(N)c(C#N)c54)n3)nc(OC3CC4CCC(C3)N4C)n2)CC1` (stereo partly drawn) [Ia-70]: the IC50 amounted to 49 nM.

On to `[2H]C([2H])([2H])N1CCN(c2cc(N3CCN(C(=O)C=C)CC3)cc(-c3noc(C4(C)CCCc5sc(N)c(C#N)c54)n3)n2)CC1` (stereo not drawn) [Ia-128], for which the IC50 stood at 64 nM.

In turn, `C=CC(=O)N1CCN(c2cc(-c3noc([C@@]4(C)CCCc5sc(N)c(C#N)c54)n3)nc(N3CCOC[C@@H]3C)n2)CC1` [Ia-73] came in with an IC50 of 222 nM.

Consider `C=CC(=O)N1CCN(c2cc(-c3noc(C4(C)CCCc5sc(N)c(C#N)c54)n3)nc(N3CCCN(CCCOC)C[C@@H]3C)c2)CC1` (stereo partly drawn) [Ia-19], for which the IC50 was found to be 5 nM.

`C=CC(=O)N1CCN(c2cc(O[C@@H]3CCN(C)C3)nc(-c3noc([C@@]4(C)CCCc5sc(N)c(C#N)c54)n3)c2)CC1` [Ia-127] came in with an IC50 of 60 nM.

Compound `C=CC(=O)N1CCN(c2cc(-c3noc([C@@]4(C)CCCc5sc(N)c(C#N)c54)n3)nc(N3CCCN(CCOC)C[C@@H]3C)c2)CC1` [Ia-130] came in with an IC50 of 7 nM.

`C=CC(=O)N1CCN(c2cc(-c3noc(C4(C)CCCc5sc(N)c(C#N)c54)n3)nc(N3CCC4(CCN(C)CC4)CC3)c2)CC1` (stereo not drawn) [Ia-34]: the IC50 is 259 nM.

Turning to `C=CC(=O)N1CCN(c2cc(-c3noc([C@@]4(C)CCCc5sc(N)c(C#N)c54)n3)nc(O[C@H]3CCN(C)[C@H]3C)n2)CC1` [Ia-68], the IC50 is 27 nM.

In turn, `C=CC(=O)N1CCC2(CCN(c3cc(-c4noc([C@@]5(C)CCCc6sc(N)c(C#N)c65)n4)nc(N4CCCN(CCCOC)C[C@@H]4C)n3)CC2)C1` [Ia-98] came in with a 50% inhibitory concentration (IC50) of 59 nM.

For `C=CC(=O)N1CCC(Oc2cc(-c3noc(C4(C)CCCc5sc(N)c(C#N)c54)n3)nc(N3CCN(C)CC3)c2)CC1` (stereo not drawn) [Ia-88], the IC50 stood at 71 nM.

Take `C=CC(=O)N1CCCC(Oc2cc(-c3noc([C@@]4(C)CCCc5sc(N)c(C#N)c54)n3)nc(N3CCCN(C)C[C@@H]3C)c2)C1` (stereo partly drawn) [Ia-6]: the IC50 came to 311 nM.

Consider `C=CC(=O)N1CCC2(CC1)CN(c1cc(-c3noc([C@@]4(C)CCCc5sc(N)c(C#N)c54)n3)nc(N3CCCN(CCCOC)C[C@@H]3C)n1)C2` [Ia-92], for which the IC50 amounted to 16 nM.

A further experiment deals with pERK (Thr202/Tyr204) in NCI-H358_Cas9_SOS2 (SOS2 knocked). As to the kind of experiment: ERK phosphorylation assay 2 (AlphaLISA SureFire Ultra p-ERK1/2). Particulars: read-out: IC50 H358 pERK, ERK phosphorylation assay 2 (values marked with *).
Experimental: ERK Phosphorylation Assay
Low IC50 values in this assay setting are indicative of high potency of the compounds according to the invention.
GFP positive cells were collected and further expanded. These GFP-positive cell pools were single-cell diluted and SOS2 knock-out clones were identified via Western-blot and genomic DNA sequencing analysis.
Materials Used for the Assay:
AlphaLISA SureFire Ultra p-ERK1/2 (Thr202/Tyr204) Assay Kit (ALSU-PERK-A500)
Cells are seeded at 40,000 cells per well in /60 μL of RPMI with 10% FBS, non-essential amino acids, pyruvate and glutamax in Greiner TC 384 plates. The cells are incubated for 1 h at room temperature and then incubated overnight in an incubator at 37° C. and 5% CO2 in a humidified atmosphere. 60 nL compound solution (10 mM DMSO stock solution) is then added using a Labcyte Echo 550 device. After a 1 h incubation in the aforementioned incubator the medium is removed after centrifugation and the cells lysed by addition of 20 μL of 1.6-fold lysis buffer from the AlphaLISA SureFire Ultra pERK1/2 (Thr202/Tyr204) Assay Kit with added protease inhibitors, 100 nM trametinib+100 nM staurosporine. After 20 minutes of incubation at room temperature with shaking, 6 μL of each lysate sample is transferred to a 384-well Proxiplate and analyzed for pERK (Thr202/Tyr204) with the AlphaLISA SureFire Ultra pERK1/2 (Thr202/Tyr204) Assay Kit. 3 μL Acceptor Mix and 3 μL Donor Mix are added under subdued light and incubated for 2 h at room temperature in the dark, before the signal is measured on a PerkinElmer Envision HTS Multilabel Reader. The raw data were imported into and analyzed with the Boehringer Ingelheim proprietary software MegaLab (curve fitting based on the program PRISM, GraphPad Inc.).
Consider `C=CC(=O)N1CCN(c2cc(-c3noc([C@@]4(C)CCc5sc(N)c(C#N)c54)n3)nc(N[C@@H](C)[C@@H]3CCCN3C)n2)CC1` [Ia-132], for which the IC50 is 1350 nM.

With `C=CC(=O)N1CC[C@@H](Oc2cc(O[C@@H](C)[C@@H]3CCCN3C)nc(-c3noc([C@@]4(C)CCCc5sc(N)c(C#N)c54)n3)c2)C1` [Ia-81], the IC50 was 1.7 nM.

`C=CC(=O)N1CCN(c2cc(-c3noc([C@@]4(C)CCCc5sc(N)c(C#N)c54)n3)nc(OC3(CN4CCCC4)CC3)n2)CC1` [Ia-67]: the IC50 worked out at 177 nM.

Consider `C=CC(=O)N1CCN(c2cc(-c3noc([C@@]4(C)CCCc5sc(N)c(C#N)c54)n3)nc(O[C@@H](CC)[C@@H]3CCCN3C)n2)CC1` [Ia-138], for which the IC50 came out at 7.8 nM.

Take `C=CC(=O)N1CCN(c2cc(-c3noc([C@@]4(C)CCCc5sc(N)c(C#N)c54)n3)nc(OC3CC4CCC(C3)N4C)n2)CC1` (stereo partly drawn) [Ia-70]: the IC50 came out at 413 nM.

With `C=CC(=O)N1CCN(c2cc(-c3noc([C@@]4(C)CCCc5sc(N)c(C#N)c54)n3)nc(N3CCOC[C@@H]3C)n2)CC1` [Ia-73], the IC50 stood at 138 nM.

In the case of `C=CC(=O)N1CCN(c2cc(-c3noc([C@@]4(C)CCCc5sc(N)c(C#N)c54)n3)nc(O[C@H]3CCN(C)[C@H]3C)n2)CC1` [Ia-68], the half-inhibitory concentration (IC50) stood at 269 nM.

Regarding `C=CC(=O)N1CCCC(Oc2cc(-c3noc([C@@]4(C)CCCc5sc(N)c(C#N)c54)n3)nc(N3CCCN(C)C[C@@H]3C)c2)C1` (stereo partly drawn) [Ia-6], the IC50 is 206 nM.

Another experiment has as its target KRASG12-dependent Ba/F3 cells (Homo sapiens, UniProt P01116, G12C, cells depend on it). The experiment in a line: Ba/F3 cell model proliferation assay (AlamarBlue, 72 h). The experiment is classed as cell-based. Conditions: Ba/F3 cells transduced with KRASG12C, read-out: IC50 Ba/F3 KRASG12C. On the procedure: Ba/F3 Cell Model Generation and Proliferation Assay
Plasmids containing KRASG12 mutants were obtained from GeneScript. To generate KRASG12-dependent Ba/F3 models, Ba/F3 cells were transduced with retroviruses containing vectors that harbor KRASG12 isoforms. Platinum-E cells (Cell Biolabs) were used for retrovirus packaging. Retrovirus was added to Ba/F3 cells. To ensure infection, 4 μg/mL polybrene was added and cells were spinfected. […] Cells with an infection efficiency of 10% to 20% were further cultivated and puromycin selection with 1 μg/mL was initiated. As a control, parental Ba/F3 cells were used to show selection status. Selection was considered successful when parental Ba/F3 cells cultures died. To evaluate the transforming potential of KRASG12 mutations, the growth medium was no longer supplemented with IL-3. Ba/F3 cells harboring the empty vector were used as a control. Approximately ten days before conducting the experiments, puromycin was left out.
All treatments were performed in technical duplicates. The assay is run using a fully automated robotic system. Treated cells were incubated for 72 h at 37° C. with 5% CO2.
AlamarBlue™ (ThermoFisher), a viability stain, was added and fluorescence measured in the PerkinElmer Envision HTS Multilabel Reader.
A general note: Resazurin is reduced to fluorescent resorufin, in cell work by metabolically active cells.
`C=CC(=O)N1CCN(c2cc(-c3noc([C@@]4(C)CCc5sc(N)c(C#N)c54)n3)nc(N[C@@H](C)[C@@H]3CCCN3C)n2)CC1` [Ia-132]: the GI50 turned out to be 1310 nM.

As for `C=CC(=O)N1CC[C@@H](Oc2cc(O[C@@H](C)[C@@H]3CCCN3C)nc(-c3noc([C@@]4(C)CCCc5sc(N)c(C#N)c54)n3)c2)C1` [Ia-81], the GI50 was 1.9 nM.

Take `[2H]C([2H])([2H])N1CCN(c2cc(N3CCN(C(=O)C=C)CC3)cc(-c3noc(C4(C)CCCc5sc(N)c(C#N)c54)n3)n2)CC1` (stereo not drawn) [Ia-128]: the GI50 is 681 nM.

As to `C=CC(=O)N1CCN(c2cc(-c3noc(C4(C)CCCc5sc(N)c(C#N)c54)n3)nc(N3CCCN(CCCOC)C[C@@H]3C)c2)CC1` (stereo partly drawn) [Ia-19], the GI50 is 25.6 nM.

For `C=CC(=O)N1CCN(c2cc(O[C@@H]3CCN(C)C3)nc(-c3noc([C@@]4(C)CCCc5sc(N)c(C#N)c54)n3)c2)CC1` [Ia-127], the GI50 stood at 1430 nM.

Regarding `C=CC(=O)N1CCN(c2cc(-c3noc([C@@]4(C)CCCc5sc(N)c(C#N)c54)n3)nc(N3CCCN(CCOC)C[C@@H]3C)c2)CC1` [Ia-130], the GI50 came out at 37.4 nM.

As to `C=CC(=O)N1CCN(c2cc(-c3noc(C4(C)CCCc5sc(N)c(C#N)c54)n3)nc(N3CCC4(CCN(C)CC4)CC3)c2)CC1` (stereo not drawn) [Ia-34], the GI50 amounted to 4380 nM.

Consider `C=CC(=O)N1CCC2(CCN(c3cc(-c4noc([C@@]5(C)CCCc6sc(N)c(C#N)c65)n4)nc(N4CCCN(CCCOC)C[C@@H]4C)n3)CC2)C1` [Ia-98], for which the GI50 turned out to be 662 nM.

For `C=CC(=O)N1CCC(Oc2cc(-c3noc(C4(C)CCCc5sc(N)c(C#N)c54)n3)nc(N3CCN(C)CC3)c2)CC1` (stereo not drawn) [Ia-88], the GI50 worked out at 381 nM.

Regarding `C=CC(=O)N1CCC2(CC1)CN(c1cc(-c3noc([C@@]4(C)CCCc5sc(N)c(C#N)c54)n3)nc(N3CCCN(CCCOC)C[C@@H]3C)n1)C2` [Ia-92], the GI50 was determined as 178 nM.

Another experiment relates to pERK (Thr202/Tyr204) in NCI-H358 (KRAS G12C mutation). As to the kind of experiment: ERK phosphorylation assay 1 (AlphaLISA SureFire Ultra p-ERK1/2). Conditions: Homo sapiens, NCI-H358, read-out: IC50 H358 pERK.
With `[2H]C([2H])([2H])N1CCN(c2cc(N3CCN(C(=O)C=C)CC3)cc(-c3noc(C4(C)CCCc5sc(N)c(C#N)c54)n3)n2)CC1` (stereo not drawn) [Ia-128], the half-inhibitory concentration (IC50) was found to be 13.3 nM.

As for `C=CC(=O)N1CCN(c2cc(-c3noc(C4(C)CCCc5sc(N)c(C#N)c54)n3)nc(N3CCCN(CCCOC)C[C@@H]3C)c2)CC1` (stereo partly drawn) [Ia-19], the IC50 came out at 6.2 nM.

Take `C=CC(=O)N1CCN(c2cc(O[C@@H]3CCN(C)C3)nc(-c3noc([C@@]4(C)CCCc5sc(N)c(C#N)c54)n3)c2)CC1` [Ia-127]: the IC50 came to 22.1 nM.

With `C=CC(=O)N1CCN(c2cc(-c3noc([C@@]4(C)CCCc5sc(N)c(C#N)c54)n3)nc(N3CCCN(CCOC)C[C@@H]3C)c2)CC1` [Ia-130], the IC50 stood at 16.6 nM.

`C=CC(=O)N1CCN(c2cc(-c3noc(C4(C)CCCc5sc(N)c(C#N)c54)n3)nc(N3CCC4(CCN(C)CC4)CC3)c2)CC1` (stereo not drawn) [Ia-34]: the half-maximal inhibitory concentration (IC50) was determined as 282 nM.

For orientation: IC50 means the concentration needed to halve the response being measured.
